Measurements reported in PubChem BioAssay AID1845208 (Molecular Pharmacology Branch, DTP, NCI, 2023).
Where “and” joins values, the source holds several entries; their conditions need not be identical. Identical values can stand only once.

Test system: NCI-H196 SCLC complex tumor spheroid viability
Test: Anticancer human tumor NCI-H196 cell line growth inhibition;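 further: spheroids exposed to compounds for 7 days before readout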;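 on viability, T/C: 100% = DMSO vehicle control wells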
Details: for viability, T/C: stronger effect = lower value
Excerpt: Multicellular complex tumor spheroid response to DNA repair inhibitors in combination with DNA-damaging drugs
This study explores the anticancer activities of DNA-damaging drugs and inhibitors of DNA damage repair, both as single agents and in combinations. Complex tumor spheroids comprised of malignant cells, endothelial cells and mesenchymal stem cells served as an in vitro model for human solid tumors. This model system incorporates physiologically relevant features and patient-derived or established malignant cell lines with clinically relevant genetic alterations from many tumor types. Twenty-six patient-derived or established malignant cell lines were evaluated representing sarcoma, melanoma, small cell lung cancer (SCLC), non-small cell lung cancer (NSCLC), as well as bladder, ovarian and pancreatic cancers. The concentration ranges selected for each drug and investigational agent were based upon clinically achievable concentrations if the clinical Cmax of the agent was known.
Compounds. The drugs and compounds olaparib (NSC753686), talazoparib (NSC767125), berzosertib (NSC777718), elimusertib (NSC800525), nedisertib (NSC802822), VX-984 (NSC792969), AZD-1390 (NSC803789), temozolomide (NSC362856), topotecan (NSC609699), trabectedin (NSC813783), staurosporine (NSC755774), and gemcitabine (NSC613327) were obtained from the National Cancer Institute (NCI) Developmental Therapeutics Program Chemical Repository. The FDA-approved anticancer drug set is available from the Developmental Therapeutics Program at https://dtp.cancer.gov/organization/dscb/obtaining/available_plates.htm. […] The stock solutions were prepared in dimethyl sulfoxide (DMSO, Sigma-Aldrich, St. Louis, MO, cat. D2650) at 400-fold the tested concentration and stored at -70 degrees C. Prior to their use, the stock solutions were diluted in fresh medium and the final DMSO concentration in the assay was 0.25% (v/v). All drugs and investigational agents were tested over a range starting from a high concentration at or near the clinical Cmax and decreasing in half-log increments. If the clinical Cmax for an agent had not been determined, the highest concentration tested was 10 microM.
Cell Lines. The patient-derived cancer cell (PDC) lines: 156681-154-R-J1-PDC, 283228-195-R-J1-PDC, 287954-098-R-J1-PDC, 292921-168-R-J2-PDC, 349418-098-R-PDC, 425362-245-T-J1-PDC, 556581-035-R-J1-PDC, and BL0293-F563-PDC were received from the NCI Patient-Derived Models Repository (PDMR, https://pdmr.cancer.gov). The established cell lines HS-SY-2 (RRID:CVCL_8719), MPNST, and SYO-1 (RRID:CVCL_7146) were obtained from the Sloan Kettering Institute. The alveolar soft parts sarcoma cell line ASPS-1 (RRID:CVCL_S738) was established at the NCI and grown from internal seed stocks. The following established cell lines were purchased from the American Type Culture Collection (ATCC, Manassas, VA): G-401 (ATCC, cat. CRL-1441, RRID:CVCL_0270), SW982 (ATCC, cat. HTB-93, RRID:CVCL_1734), VA-ES-BJ (ATCC, cat. CRL-2138, RRID:CVCL_1785), NCI-H719 (ATCC, cat. CRL-5837, RRID:CVCL_1582), NCI-H196 (ATCC, cat. CRL-5823, RRID:CVCL_1509), NCI-H841 (ATCC, cat. CRL-5845, RRID:CVCL_1595), NCI-H1618 (ATCC, cat. CRL-5879, RRID:CVCL_1480), NCI-H1876 (ATCC, cat. CRL-5902, RRID:CVCL_1503), DMS 114 (ATCC, cat. CRL-2066; RRID:CVCL_1174), NCI-H211 (ATCC, cat. CRL-5824; RRID:CVCL_1529), and SW 1271 (ATCC, cat. CRL-2177, RRID:CVCL_1716). The small cell lung cancer cell line COR-L88 was purchased from Sigma-Aldrich (cat. 92031917-1VL, RRID:CVCL_1141). The non-small cell lung cancer cell lines NCI-H226 (RRID:CVCL_1544) and NCI-H322M (RRID:CVCL_1557) were established at the NCI and grown from internal seed stocks. Pooled donor human umbilical vein endothelial cells (HUVEC, Lonza, cat. CC-2519) and human mesenchymal stem cells (hMSC, Lonza, cat. PT-2501) were purchased from Lonza (Walkersville, MD).
Cell Culture. All cells were maintained in an incubator at 37 degrees C and 5% CO2 with 95% humidity. […]

[1] = curve of first compound, second compound 30 pM
[2] = curve of first compound, second compound 94.9 pM
[3] = curve of first compound, second compound 0.0003 µM
[4] = curve of first compound, second compound 0.000949 µM
[5] = curve of first compound, second compound 0.003 µM

**Q.** With `[2H]c1nc(C)nc([2H])c1-c1cc(NC[C@@H](C)c2cccc3c(C(=O)NC)ccnc23)ncn1` as the compound, how does the viability, T/C (compound 0.0316 µM) read?
**A.** 104% and 105% and 99.6%

**Q.** And the viability, T/C (compound 0.1 µM)?
**A.** 102% and 99.5% and 104%

**Q.** What about the viability, T/C (compound 0.316 µM) of the same compound?
**A.** 98.1% and 106% and 96.8%

**Q.** And the viability, T/C (compound 1 µM)?
**A.** 99.2% and 106% and 97.2%

**Q.** And the viability, T/C (compound 3.16 µM)?
**A.** 103% and 99.3% and 102%

**Q.** What about the viability, T/C (compound 10 µM) of the same compound?
**A.** 103% and 107% and 104%

**Q.** What about the IC50 (curve of compound) of the same compound?
**A.** > 10 µM

**Q.** Which results are given for `CC1COCCN1c1cc(-c2ccnn2C)c2ccnc(-c3ccn[nH]3)c2n1` (configuration not stated) + COc1cc2c(cc1O)CCNC21CSC2c3c(OC(C)=O)c(C)c4c(c3C(COC1=O)N1C(O)C3Cc5cc(C)c(OC)c(O)c5C(C21)N3C)OCO4?
**A.** IC50 [1]: 4.19 µM; IC50 [2]: 3.43 µM; IC50 [3]: 2.5 µM; IC50 [4]: 0.711 µM; IC50 [5]: < 0.0316 µM; viability, T/C (second compound 30 pM, first compound 0.0316 µM): 90.5%; viability, T/C (second compound 30 pM, first compound 0.1 µM): 74.5%; viability, T/C (second compound 30 pM, first compound 0.316 µM): 67.2%; viability, T/C (second compound 30 pM, first compound 1 µM): 56.7%; viability, T/C (second compound 30 pM, first compound 3.16 µM): 51.8%; viability, T/C (second compound 30 pM, first compound 10 µM): 46.3%; viability, T/C (second compound 94.9 pM, first compound 0.0316 µM): 89.1%; viability, T/C (second compound 94.9 pM, first compound 0.1 µM): 73.8%; viability, T/C (second compound 94.9 pM, first compound 0.316 µM): 67%; viability, T/C (second compound 94.9 pM, first compound 1 µM): 58%; viability, T/C (second compound 94.9 pM, first compound 3.16 µM): 50.8%; viability, T/C (second compound 94.9 pM, first compound 10 µM): 44.5%; viability, T/C (second compound 0.0003 µM, first compound 0.0316 µM): 81.8%; viability, T/C (second compound 0.0003 µM, first compound 0.1 µM): 67.1%; viability, T/C (second compound 0.0003 µM, first compound 0.316 µM): 64%; viability, T/C (second compound 0.0003 µM, first compound 1 µM): 59.2%; viability, T/C (second compound 0.0003 µM, first compound 3.16 µM): 45.9%; viability, T/C (second compound 0.0003 µM, first compound 10 µM): 42.5%; viability, T/C (second compound 0.000949 µM, first compound 0.0316 µM): 72.2%; viability, T/C (second compound 0.000949 µM, first compound 0.1 µM): 64%; viability, T/C (second compound 0.000949 µM, first compound 0.316 µM): 56.3%; viability, T/C (second compound 0.000949 µM, first compound 1 µM): 51.7%; viability, T/C (second compound 0.000949 µM, first compound 3.16 µM): 31.9%; viability, T/C (second compound 0.000949 µM, first compound 10 µM): 32.6%; viability, T/C (second compound 0.003 µM, first compound 0.0316 µM): 9.26%; viability, T/C (second compound 0.003 µM, first compound 0.1 µM): 6.28%; viability, T/C (second compound 0.003 µM, first compound 0.316 µM): 10.1%; viability, T/C (second compound 0.003 µM, first compound 1 µM): 3.62%; viability, T/C (second compound 0.003 µM, first compound 3.16 µM): 0.78%; viability, T/C (second compound 0.003 µM, first compound 10 µM): 0.39%

**Q.** How did the IC50 [1] turn out when `Cc1sc2c(c1C)C(c1ccc(Cl)cc1)=NC(CC(=O)Nc1ccc(O)cc1)c1nnc(C)n1-2` (configuration not stated) + COc1cc2c(cc1O)CCNC21CSC2c3c(OC(C)=O)c(C)c4c(c3C(COC1=O)N1C(O)C3Cc5cc(C)c(OC)c(O)c5C(C21)N3C)OCO4 was run?
**A.** 0.631 µM

**Q.** And the IC50 [2]?
**A.** 1.02 µM

**Q.** And the IC50 [3]?
**A.** 2.54 µM

**Q.** And the IC50 [4]?
**A.** > 3 µM

**Q.** What about the IC50 [5] of the same compound?
**A.** < 0.00949 µM

**Q.** What about the viability, T/C (second compound 30 pM, first compound 0.00949 µM) of the same compound?
**A.** 94.4%

**Q.** And the viability, T/C (second compound 30 pM, first compound 0.03 µM)?
**A.** 96.4%

**Q.** And the viability, T/C (second compound 30 pM, first compound 0.0949 µM)?
**A.** 93.8%

**Q.** And the viability, T/C (second compound 30 pM, first compound 0.3 µM)?
**A.** 69.3%

**Q.** What about the viability, T/C (second compound 30 pM, first compound 0.949 µM) of the same compound?
**A.** 39.7%

**Q.** What about the viability, T/C (second compound 30 pM, first compound 3 µM) of the same compound?
**A.** 21.8%

**Q.** What about the viability, T/C (second compound 94.9 pM, first compound 0.00949 µM) of the same compound?
**A.** 103%

**Q.** What about the viability, T/C (second compound 94.9 pM, first compound 0.03 µM) of the same compound?
**A.** 100%

**Q.** What about the viability, T/C (second compound 94.9 pM, first compound 0.0949 µM) of the same compound?
**A.** 95%

**Q.** And the viability, T/C (second compound 94.9 pM, first compound 0.3 µM)?
**A.** 80.1%

**Q.** What about the viability, T/C (second compound 94.9 pM, first compound 0.949 µM) of the same compound?
**A.** 51.4%

**Q.** And the viability, T/C (second compound 94.9 pM, first compound 3 µM)?
**A.** 26.9%

**Q.** What about the viability, T/C (second compound 0.0003 µM, first compound 0.00949 µM) of the same compound?
**A.** 110%

**Q.** What about the viability, T/C (second compound 0.0003 µM, first compound 0.03 µM) of the same compound?
**A.** 110%

**Q.** What about the viability, T/C (second compound 0.0003 µM, first compound 0.0949 µM) of the same compound?
**A.** 102%

**Q.** And the viability, T/C (second compound 0.0003 µM, first compound 0.3 µM)?
**A.** 88.7%

**Q.** And the viability, T/C (second compound 0.0003 µM, first compound 0.949 µM)?
**A.** 65.7%

**Q.** And the viability, T/C (second compound 0.0003 µM, first compound 3 µM)?
**A.** 47.4%

**Q.** What about the viability, T/C (second compound 0.000949 µM, first compound 0.00949 µM) of the same compound?
**A.** 89.6%

**Q.** What about the viability, T/C (second compound 0.000949 µM, first compound 0.03 µM) of the same compound?
**A.** 88%

**Q.** And the viability, T/C (second compound 0.000949 µM, first compound 0.0949 µM)?
**A.** 80.9%

**Q.** And the viability, T/C (second compound 0.000949 µM, first compound 0.3 µM)?
**A.** 87.3%

**Q.** And the viability, T/C (second compound 0.000949 µM, first compound 0.949 µM)?
**A.** 68.2%

**Q.** What about the viability, T/C (second compound 0.000949 µM, first compound 3 µM) of the same compound?
**A.** 52.7%

**Q.** What about the viability, T/C (second compound 0.003 µM, first compound 0.00949 µM) of the same compound?
**A.** 6.44%

**Q.** And the viability, T/C (second compound 0.003 µM, first compound 0.03 µM)?
**A.** 6.85%

**Q.** And the viability, T/C (second compound 0.003 µM, first compound 0.0949 µM)?
**A.** 6.03%

**Q.** And the viability, T/C (second compound 0.003 µM, first compound 0.3 µM)?
**A.** 8.32%

**Q.** What about the viability, T/C (second compound 0.003 µM, first compound 0.949 µM) of the same compound?
**A.** 2.93%

**Q.** What about the viability, T/C (second compound 0.003 µM, first compound 3 µM) of the same compound?
**A.** 0.8%
